In patent US20170246130A1, “4-HYDROXYBENZOHYDARZIDE-A NEW CLASS OF ANGIOGENIC ENZYME THYMIDINE PHOSPHORYLASE INHIBITORS” (priority 2016, published 2017):
Entries after “also recorded” stand apart in the source; their conditions may differ.

Columns and labels:
[1] = molecular target: T1, thymidine phosphorylase (E. coli) (Escherichia coli, UniProt P07650); experiment: Kinetic (mechanistic) studies on thymidine phosphorylase; type: biochemical; details: for Inhibition Type: Lineweaver-Burk plot; for Inhibition Type / Ki: thymidine as variable substrate; for Ki: secondary re-plot, confirmed by Dixon plot, read-out: Ki (μM ± S.E.M.), dissociation constant; for apparent Vmax (Lineweaver-burk plot) / apparent km of the enzyme (Lineweaver-burk plot): absence and different concentrations of compound
T1 construct: purchased Sigma Aldrich, USA; host or cells: Escherichia coli
T1 sequence (P07650 whole entry): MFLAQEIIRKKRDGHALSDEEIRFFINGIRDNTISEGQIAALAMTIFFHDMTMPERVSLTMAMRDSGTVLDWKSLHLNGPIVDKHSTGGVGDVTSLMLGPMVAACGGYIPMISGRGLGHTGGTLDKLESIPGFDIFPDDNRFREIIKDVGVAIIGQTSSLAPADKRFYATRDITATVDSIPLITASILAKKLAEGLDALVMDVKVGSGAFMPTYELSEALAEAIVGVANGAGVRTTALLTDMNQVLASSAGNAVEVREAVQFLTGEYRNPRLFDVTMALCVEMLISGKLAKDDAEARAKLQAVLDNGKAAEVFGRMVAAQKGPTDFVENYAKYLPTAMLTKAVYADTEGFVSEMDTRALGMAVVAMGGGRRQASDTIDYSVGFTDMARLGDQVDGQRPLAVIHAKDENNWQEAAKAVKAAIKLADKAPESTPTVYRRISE
Method: These studies disclose the mechanism of inhibitor binding to enzyme. Kinetic studies were carried out using thymidine as variable substrate. […] This was deduced from Lineweaver Burk plot. This compound therefore, interacted either with the amino acids of hydrophobic pocket of the enzyme or at allosteric site of the enzyme. […] Uncompetitive inhibitor causes decrease in both Km and Vmax values of the enzyme (Figure-6). […] Ki values were determined by secondary re-plot, and confirmed by Dixon plot.
Kinetic studies were carried out to find the mechanism of inhibitor action. Inhibitor could bind with enzyme in multiple ways such as in competitive, non-competitive, mixed or uncompetitive way. In kinetic assay, the enzyme (0.058 U/200 μL) was incubated with different concentrations of inhibitor for 10 min at 30° C. The reactions was then initiated by adding different concentrations (0.1875 mM-1.5 mM) of substrate (thymidine) and the resulting degradation of thymidine was measured continuously at 290 nm for 10 min on a ELISA plate reader. Every experiment was run in triplicate.
Line-weaver Burk plot was plotted to determine the type of inhibition. This was accomplished by plotting the reciprocal of the rate of reaction against the reciprocal of the substrate concentration. Ki values were determined by secondary re-plot, and reconfirmed by Dixon plot. The Ki was determined by non-linear regression equation.

[2] = tested on: mouse fibroblast cell line (3T3); experiment: MTT anti-proliferative assay, 3T3 cells; type: cell-based; details: for inhibition of the proliferation of 3T3 cells (in words): in comparison to cyclohexamide; for IC50 ± SD (μM), 3T3 Cell Line: 48 h, 3T3 cells
Method: (§1) Compounds found to be active in inhibiting thymidine phosphorylase were then subjected to MTT proliferation assay. Rapid proliferation is the property inherent to cancerous/tumor cells. This assay was carried out to study the effect of these compounds on proliferation of various cell lines. The cell lines which we targeted were mouse fibroblast cell line (3T3), and prostate cancer line (PC3).
(§2) Anti-proliferative activity of active compounds was evaluated by using the standard MTT (3-[4,5-dimethylthiazole-2-yl]-2,5-diphenyl-tetrazolium bromide) colorimetric assay in 96-well plate (Dimas et al., 1998).
(§3) It is a colorimetric assay that measures the reduction of MTT, by mitochondrial enzyme i.e. succinate dehydrogenase. The MTT enters into the mitochondria of cell, where it is reduced to an insoluble formazan salt (FIG. 8). The extent of MTT reduction was measured at 540 nm. As reduction of MTT can only occur in metabolically active cells, the level of activity is actually a measure of the viability of the cells (Vega-Avila and Pugsley, 2011).
(§4) Mouse fibroblast cell line 3T3 was cultured in DMEM, supplemented with 5% of FBS, 100 IU/mL of penicillin and 100 μg/mL of streptomycin, and kept at 37° C. in 5% CO2 incubator. For the preparation of cell culture, 100 μL/well of cell solution (5×10^4 cells/mL) was added into 96-well plate. The plate was incubated for overnight, and fresh medium was added after the removal of old medium. The test compounds were also added in different concentrations into the plate and plate was again incubated for 48 h. After the completion of this incubation period, 200 μL MTT (0.5 mg/mL) was added and plate was again incubated for 4 h, after this final incubation 100 μL of DMSO was added to each well. The level of MTT reduction to formazan was evaluated by change in absorbance at 540 nm using a micro plate reader (Spectra Max plus, Molecular Devices, CA, USA).

[3] = molecular target: T1, thymidine phosphorylase (E. coli); experiment: In-vitro thymidine phosphorylase inhibition assay (spectrophotometric); type: biochemical; details: recombinant E. coli TP, thymidine substrate, pH 7.0, 30° C., 290 nm; read-out: IC50 (μM ± S.E.M.), thymidine phosphorylase inhibition
Method: In vitro studies on thymidine phosphorylase were carried out in 96-well microtiter plate using Spectra Max-340 and Spectra Max-384 spectrophotometers (Molecular Devices, CA, USA). Deionized water used for buffer preparation was collected by Simplicity Water Purification System (Milipore).
Since human TP is not commercially available, we used commercially available recombinant E. coli TP (expressed in Escherichia coli) enzyme. Primary sequence of TP is mostly conserved throughout the evolution as mammalian TP share 39% sequence similarity with TP of E. coli. The mammalian enzyme also shared 65-70% similarity with the active site residues of E. coli TP enzyme (Bronckaers et al., 2009). Assay for thymidine phosphorylase inhibition was performed spectrophotometrically, following method of Bera et al. with some modifications (Bera et al., 2013).
The reaction catalyzed by thymidine phosphorylase involves reversible phosphorolysis of thymidine (FIG. 1), to thymine and 2-deoxyribose-1-phosphate (Bronckaers et al., 2009).
Reaction mixture contained 150 μL of potassium phosphate buffer (pH 7.0, 50 mM), 20 µL of enzyme (0.058 U/well) and 10 μL of test compound (0.5 mM in dimethylsulfoxide). The reaction mixture was incubated for 10 min at 30° C.
The enzyme inhibitory activities were calculated using the following formula:
Percent Inhibition=100−(O.D. of test/O.D. of control)×100
Where test is the enzyme activity with sample, and control is the enzyme activity without sample, and O.D. is optical density.
The IC50 of the compounds was calculated using EZ-Fit Enzyme Kinetic Program (Perrella Scientific Inc., Amhrest, U.S.A.).

[4] = tested on: prostate cancer line (PC3); experiment: MTT anti-proliferative assay, PC3 cells; type: cell-based; details: for IC50 ± SD (μM), PC3 Cell Line: PC3 cells
Method: as §1, §2, §3, §4

For `Oc1nc(O)c2cc[nH]c2n1` [7-Deazaxanthine, 2,4-Dihydroxypyrrolo[2,3-d]pyrimidine, reference compound], the “Inhibition Type” value [1] was “Non-Competitive”.

For `O=C(N/N=C/c1ccc(O)c(O)c1)c1ccc(O)cc1` [Compound 5, 4-Hydroxy-N′-[(E)-(3,4-dihydroxyphenyl)methylidene]benzohydrazide], the “inhibition of the proliferation of 3T3 cells (in words)” value (“inhibition … of 3T3 cells (in words)” for short) [2] was “significantly inhibit”, the IC50 [3] was 229.5 ± 0.4 µM and the “IC50 ± SD (μM), PC3 Cell Line” value [4] was “Inactive”. For the same compound, the “Inhibition Type” value [1] was “un-competitive; also recorded: Uncompetitive” and the Ki [1] was 176.65 ± 0.006 µM.

`O=C(N/N=C/c1ccc(Cl)cc1)c1ccc(O)cc1` [Compound 12, 4-Hydroxy-N′-[(E)-(4-chlorophenyl)methylidene]benzohydrazide] was tested, and the “IC50 ± SD (μM), 3T3 Cell Line” value [2] was “Inactive”, the IC50 [3] was 159 ± 0.4 µM and the “IC50 ± SD (μM), PC3 Cell Line” value [4] was “Inactive”. The “Inhibition Type” value [1] was “un-competitive; also recorded: Uncompetitive” and the Ki [1] was 138 ± 0.009 µM.

For `O=C(N/N=C/c1ccc(Br)cc1)c1ccc(O)cc1` [Compound 14, 4-Hydroxy-N′-[(E)-(4-bromophenyl)methylidene]benzohydrazide], the “IC50 ± SD (μM), 3T3 Cell Line” value [2] was “Inactive”, the IC50 [3] was 158 ± 1 µM and the “IC50 ± SD (μM), PC3 Cell Line” value [4] was “Inactive”. For the same compound, the “Inhibition Type” value [1] was “un-competitive; also recorded: Uncompetitive” and the Ki [1] was 80.5 ± 0.002 µM.

`O=C(N/N=C/c1cc(Br)cc(Br)c1O)c1ccc(O)cc1` [Compound 24, 4-Hydroxy-N′-[(E)-(3,5-dibromo-2-hydroxyphenyl)methylidene]benzohydrazide] was tested, and the “inhibition … of 3T3 cells (in words)” value [2] was “significantly inhibit”, the IC50 [3] was 6.8 ± 0.7 µM and the IC50 ([4]; Homo sapiens, PC-3, PC3 cells, read-out: IC50 ± SD (μM), PC3 Cell Line) was 8.34 ± 0.965 µM. For the same compound, the “inhibition of the proliferation of PC3 cancer cells (in words)” value ([4]; in comparison of doxorubucin) was “significantly inhibit”, the “Inhibition Type” value [1] was “Non-Competitive” and the “apparent Vmax (Lineweaver-burk plot)” value [1] was “decreased”. The “apparent km of the enzyme (Lineweaver-burk plot)” value [1] was “remains unaffected” and the Ki [1] was 1.75 ± 0.009 µM.

For `C/C(=N\NC(=O)c1ccc(O)cc1)c1c(O)cccc1O` [Compound 27, 4-Hydroxy-N′-[(E)-1-(2,6-dihydroxyphenyl)ethylidene]benzohydrazide], the “inhibition … of 3T3 cells (in words)” value [2] was “significantly inhibit”, the IC50 [3] was 176.9 ± 1.6 µM and the “IC50 ± SD (μM), PC3 Cell Line” value [4] was “Inactive”. For the same compound, the “Inhibition Type” value [1] was “un-competitive; also recorded: Uncompetitive”, the “apparent Vmax (Lineweaver-burk plot)” value [1] was “decreased” and the “apparent km of the enzyme (Lineweaver-burk plot)” value [1] was “remains unaffected”. The Ki [1] was 168 ± 0.003 µM.

For `CC/C(=N\NC(=O)c1ccc(O)cc1)c1cc(O)ccc1O` [Compound 30, 4-Hydroxy-N′-[(E)-1-(2,5-dihydroxyphenyl)propylidene]benzohydrazide], the “inhibition … of 3T3 cells (in words)” value [2] was “significantly inhibit”, the IC50 [3] was 173 ± 1.4 µM and the “IC50 ± SD (μM), PC3 Cell Line” value [4] was “Inactive”. For the same compound, the “Inhibition Type” value [1] was “un-competitive; also recorded: Uncompetitive” and the Ki [1] was 159.05 ± 0.002 µM.
